{
  "source": "ChEMBL document CHEMBL1146495",
  "about": "“Iridoids as allelochemicals and DNA polymerase inhibitors” (J Nat Prod, 2004)",
  "key": {"[1]": {"test_system": "Tribolium castaneum", "assay": "Antifeedant activity against Tribolium castaneum assessed as feeding deterrence index at 200 ug/disk after 5 days by flour disk assay", "format": "functional, organism-based"}, "[2]": {"test_system": "Tribolium castaneum", "assay": "Insecticidal activity against Tribolium castaneum fifth instar larvae assessed as pupal stage duration at 60 ug/uL, treated topically", "format": "functional"}, "[3]": {"test_system": "Tribolium castaneum", "assay": "Antifeedant activity against Tribolium castaneum assessed as relative consumption rate at 200 ug/disk after 5 days by flour disk assay", "format": "functional"}, "[4]": {"test_system": "Tribolium castaneum", "assay": "Antifeedant activity against Tribolium castaneum assessed as efficiency of conversion of ingested food at 200 ug/disk after 5 days by flour disk assay", "format": "functional, Instar larval stage"}, "[5]": {"target": "DNA polymerase I, thermostable (Thermus aquaticus, UniProt P19821)", "sequence (P19821 whole entry)": "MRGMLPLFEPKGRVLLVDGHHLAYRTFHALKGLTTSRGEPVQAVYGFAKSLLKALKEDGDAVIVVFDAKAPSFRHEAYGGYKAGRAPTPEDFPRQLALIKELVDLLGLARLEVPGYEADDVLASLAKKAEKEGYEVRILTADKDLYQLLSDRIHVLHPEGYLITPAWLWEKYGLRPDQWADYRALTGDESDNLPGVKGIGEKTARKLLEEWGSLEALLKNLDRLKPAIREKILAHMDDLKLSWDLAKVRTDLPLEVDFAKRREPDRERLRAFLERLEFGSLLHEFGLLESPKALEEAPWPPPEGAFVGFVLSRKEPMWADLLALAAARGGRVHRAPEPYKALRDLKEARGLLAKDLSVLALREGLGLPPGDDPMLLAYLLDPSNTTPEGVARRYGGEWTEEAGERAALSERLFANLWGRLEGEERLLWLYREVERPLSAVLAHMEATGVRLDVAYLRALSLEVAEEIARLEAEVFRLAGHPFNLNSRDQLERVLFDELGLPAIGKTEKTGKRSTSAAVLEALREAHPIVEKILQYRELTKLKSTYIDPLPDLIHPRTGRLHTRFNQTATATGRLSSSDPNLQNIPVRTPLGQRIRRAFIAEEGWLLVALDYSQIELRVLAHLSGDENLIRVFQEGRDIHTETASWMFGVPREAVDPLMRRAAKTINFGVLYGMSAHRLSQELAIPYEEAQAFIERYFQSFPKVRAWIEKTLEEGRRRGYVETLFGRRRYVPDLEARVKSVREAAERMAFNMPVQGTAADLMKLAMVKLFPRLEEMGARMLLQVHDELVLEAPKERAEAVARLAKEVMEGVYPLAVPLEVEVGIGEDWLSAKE", "assay": "Inhibition of Thermus aquaticus-DNA polymerase by PCR analysis"}, "[6]": {"test_system": "Tribolium castaneum", "assay": "Antifeedant activity against Tribolium castaneum assessed as relative growth rate at 200 ug/disk after 5 days by flour disk assay", "format": "functional"}, "[7]": {"test_system": "Tribolium castaneum", "assay": "Insecticidal activity against Tribolium castaneum fifth instar larvae assessed as mortality at 60 ug/uL, treated topically", "format": "functional"}, "[8]": {"target": "DNA polymerase I, thermostable (Thermus aquaticus) (UniProt P19821)", "sequence (P19821 whole entry)": "as above", "assay": "Inhibition of Thermus aquaticus-DNA polymerase at 500 uM by PCR analysis"}},
  "note": "Activity calls are given as the source filed them. The calls are words filed in the database; no cut-off is given here.",
  "data": [
    {"smiles": "CC(=O)O[C@@]1(C)C[C@@H](O)[C@]2(O)C=CO[C@@H](O[C@@H]3O[C@H](CO)[C@@H](O)[C@H](O)[C@H]3O)[C@@H]21", "values": [
      {"measurement": "Activity", "setting": "[1]", "value": "inactive"},
      {"measurement": "Activity", "setting": "[2]", "value": 11.3, "unit": "days"},
      {"measurement": "Activity", "setting": "[3]", "value": 0.058, "unit": "mg/mg/day"},
      {"measurement": "Activity", "setting": "[4]", "value": -8.908, "unit": "%"},
      {"measurement": "IC50", "setting": "[5]", "value": 214, "unit": "µM"},
      {"measurement": "Activity", "setting": "[6]", "value": -0.004, "unit": "mg/mg/day"},
      {"measurement": "Activity", "setting": "[7]", "value": 56.6, "unit": "%"}
    ]},
    {"smiles": "CC(=O)OC[C@H]1O[C@@H](O[C@@H]2OC=C[C@H]3[C@H](OC(C)=O)[C@@H]4O[C@]4(COC(C)=O)[C@@H]23)[C@H](OC(C)=O)[C@@H](OC(C)=O)[C@@H]1OC(C)=O", "values": [
      {"measurement": "Activity", "setting": "[8]", "value": "inactive"}
    ]},
    {"smiles": "CC(=O)O[C@@H]1[C@@H](OC(C)=O)[C@H](O[C@@H]2OC=C[C@H]3[C@H](OC(C)=O)[C@@H]4O[C@]4(CO[Si](c4ccccc4)(c4ccccc4)C(C)(C)C)[C@@H]23)O[C@H](CO[Si](c2ccccc2)(c2ccccc2)C(C)(C)C)[C@H]1OC(C)=O", "values": [
      {"measurement": "Activity", "setting": "[8]", "value": "inactive"}
    ]},
    {"smiles": "CCCCCCCC/C=C\\CCCCCCCCOC[C@H]1O[C@@H](O[C@@H]2OC=C[C@H]3[C@H](O)[C@@H]4O[C@]4(COCCCCCCCC/C=C\\CCCCCCCC)[C@@H]23)[C@H](O)[C@@H](O)[C@@H]1O", "values": [
      {"measurement": "Activity", "setting": "[8]", "value": "inactive"}
    ]},
    {"smiles": "OC[C@H]1O[C@@H](O[C@@H]2OCC[C@H]3[C@H](O)[C@@H]4O[C@]4(CO)[C@@H]23)[C@H](O)[C@@H](O)[C@@H]1O", "values": [
      {"measurement": "Activity", "setting": "[8]", "value": "inactive"}
    ]},
    {"smiles": "OC[C@H]1O[C@@H](O[C@@H]2OC=C[C@H]3[C@H](O)[C@@H]4O[C@]4(CO)[C@@H]23)[C@H](O)[C@@H](O)[C@@H]1O", "note": "[CATALPOL]", "values": [
      {"measurement": "Activity", "setting": "[1]", "value": "inactive"},
      {"measurement": "Activity", "setting": "[2]", "value": 8.2, "unit": "days"},
      {"measurement": "Activity", "setting": "[3]", "value": 0.017, "unit": "mg/mg/day"},
      {"measurement": "Activity", "setting": "[4]", "value": -66.101, "unit": "%"},
      {"measurement": "IC50", "setting": "[5]", "value": 47.8, "unit": "µM"},
      {"measurement": "Activity", "setting": "[6]", "value": -0.01, "unit": "mg/mg/day"},
      {"measurement": "Activity", "setting": "[7]", "value": 73.3, "unit": "%"}
    ]},
    {"smiles": "C[C@]1(O)C[C@@H](O)[C@]2(O)C=CO[C@@H](O[C@@H]3O[C@H](CO)[C@@H](O)[C@H](O)[C@H]3O)[C@@H]21", "note": "[HARPAGIDE]", "values": [
      {"measurement": "IC50", "setting": "[5]", "value": 417, "unit": "µM"}
    ]},
    {"smiles": "C[C@]1(O)C[C@@H](O)[C@]2(O)C=CO[C@@H](O[C@H]3O[C@H](CO)[C@@H](O)[C@H](O)[C@H]3O)[C@@H]21", "note": "[HARPAGIDE]", "values": [
      {"measurement": "Activity", "setting": "[1]", "value": "inactive"},
      {"measurement": "Activity", "setting": "[2]", "value": 12.1, "unit": "days"},
      {"measurement": "Activity", "setting": "[3]", "value": 0.019, "unit": "mg/mg/day"},
      {"measurement": "Activity", "setting": "[4]", "value": -30.729, "unit": "%"},
      {"measurement": "Activity", "setting": "[6]", "value": -0.003, "unit": "mg/mg/day"},
      {"measurement": "Activity", "setting": "[7]", "value": 60, "unit": "%"}
    ]}
  ]
}
